# Laboratory results published in patent US7754695B2, “Lipase inhibitors” (Suntory Holdings Limited, priority 2004, dated 2010).
# pIC50: −log10 of the molar value.
# Target: T1, porcine pancreatic lipase (Sus scrofa, UniProt P00591)
# T1 construct: purchased Sigma
# T1 sequence (P00591 1-450): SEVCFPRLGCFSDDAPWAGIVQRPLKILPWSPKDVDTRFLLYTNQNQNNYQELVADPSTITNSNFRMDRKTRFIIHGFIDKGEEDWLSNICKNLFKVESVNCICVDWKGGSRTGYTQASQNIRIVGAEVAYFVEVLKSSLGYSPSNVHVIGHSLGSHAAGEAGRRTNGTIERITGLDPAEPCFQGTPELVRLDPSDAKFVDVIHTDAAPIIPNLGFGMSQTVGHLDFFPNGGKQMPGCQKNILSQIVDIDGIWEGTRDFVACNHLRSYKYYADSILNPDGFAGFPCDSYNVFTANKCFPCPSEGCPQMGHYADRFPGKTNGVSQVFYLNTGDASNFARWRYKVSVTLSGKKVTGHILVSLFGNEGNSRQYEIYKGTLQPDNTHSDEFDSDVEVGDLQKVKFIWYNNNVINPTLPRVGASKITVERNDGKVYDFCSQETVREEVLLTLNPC
# Experiment: Lipase inhibitory activity measurement (4-UMO fluorescence substrate)
# Assay type: biochemical
# Settings: for pIC50: 4-UMO substrate, pH 8.0, 25 degrees, 30 minutes of reaction; for lipase inhibitory activity (in words): summary of Table 1
# Method: Lipase activity measurement was carried out by using oleic acid ester of fluorescence 4-methylumbelliferone (4-UMO) as a substrate, and measuring the fluorescence of 4-methylumbelliferone produced by reaction.
# Substrate 4-UMO (Sigma) is prepared as 0.1 M solution in DMSO and diluted 1000 times with the buffer mentioned above. Similarly, lipase (porcine pancreatic lipase (Sigma)) is prepared as 400 U/ml solution in the buffer mentioned above and used in enzymatic measurement.
# 50 μl of 4-UMO buffer solution and 25 μl of distilled water (or sample solution) are placed in 96 well microplate and mixed at 25 degrees, followed by adding 25 μl of lipase buffer solution to start enzyme reaction. After 30 minutes of reaction, 100 μl of 0.1 M citric acid buffer (pH 4.2) was added to terminate the reaction, and fluorescence of 4-methylumbelliferone (excitation wavelength: 355 nm, fluorescence wavelength: 460 nm) produced by the reaction was measured with a fluorescence plate reader (Labsystems, Fluoroskan Asent CF).
pIC50,lipase inhibitory activity (in words),SMILES
< 4.30,,"O=C(O[C@@H]1O[C@H](CO)[C@@H](O)[C@H](O)[C@H]1O)c1cc(O)c(O)c(O)c1 [β-glucogallin (2), β-glucogallin]"
6.69,showed lipase inhibitory activity,"O=C(OC[C@H]1OC(OC(=O)c2cc(O)c(O)c(O)c2)[C@H](OC(=O)c2cc(O)c(O)c(O)c2)[C@@H](O)[C@@H]1OC(=O)c1cc(O)c(O)c(O)c1)c1cc(O)c(O)c(O)c1 (some centres unmarked) [1,2,4,6-tetra-GA-Glc (6), 1,2,4,6-tetragalloylglucose]"
6.90,showed lipase inhibitory activity,"O=C(O[C@H]1[C@@H]2OC(=O)c3cc(O)c(O)c(O)c3-c3c(cc(O)c(O)c3O)C(=O)OC[C@H]2OC(O)[C@@H]1OC(=O)c1cc(O)c(O)c(O)c1)c1cc(O)c(O)c(O)c1 (some centres unmarked) [Tellimagrandin1 (7), Tellimagrandin 1]"
< 4.30,,"O=C(O[C@@H]1C[C@](O)(C(=O)O)C[C@@H](O)[C@H]1O)c1cc(O)c(O)c(O)c1 [theogallin (3), theogallin]"
6.33,showed lipase inhibitory activity,"O=C(O[C@@H]1O[C@@H]2COC(=O)c3cc(O)c(O)c(O)c3-c3c(cc(O)c(O)c3O)C(=O)O[C@H]2[C@H](O)[C@H]1O)c1cc(O)c(O)c(O)c1 [strictinin (5), strictinin]"
5.91,showed lipase inhibitory activity,"O=C(OCC1OC(OC(=O)c2cc(O)c(O)c(O)c2)C(O)C(O)C1OC(=O)c1cc(O)c(O)c(O)c1)c1cc(O)c(O)c(O)c1 [1,4,6-tri-O-galloyl-D-glucose (4), 1,4,6-tri-O-galloyl-D-glucose]"
7.13,showed lipase inhibitory activity,"O=C(O[C@@H]1O[C@@H]2COC(=O)c3cc(O)c(O)c(O)c3-c3c(cc(O)c(O)c3O)C(=O)O[C@H]2[C@H](OC(=O)c2cc(O)c(O)c(O)c2)[C@H]1OC(=O)c1cc(O)c(O)c(O)c1)c1cc(O)c(O)c(O)c1 [Tellimagrandin2 (8), Tellimagrandin 2]"

SMILES,pIC50,lipase inhibitory activity (in words)
"O=C(O)c1cc(O)c(O)c(O)c1 [Galli acid (1), Gallic acid, reference compound]",< 4.30,showed no activity
